One data set deals with Arabidopsis leaves. Description: LC-MS time course of Arabidopsis leaves infiltrated with ascr #18. The data set is classed as in vivo, Arabidopsis thaliana. The note with it: Arabidopsis leaves infiltrated with 1 μM ascr #18. From the text:
FIG. 2A provides LC-MS analysis of tomato roots treated with ascr #18 or ^13C2-labeled ascr #18. Plants treated with ^13C2-labeled ascr #18 show peaks at 333.21932 and 249.12542, representing [M-H]^− of ^13C2-ascr #18 and ^13C2-ascr #9, but not at 331.21261 and 247.11871, which correspond to [M-H]^− of ascr #18 and ascr #9, and vice versa. Structures of ascr #18 and ascr #9 indicating the positions of the ^13C2-label are shown above ion chromatograms. Peaks marked with an asterisk represent unrelated peaks. FIGS. 2B and 2C provide graphs showing the relative abundances of ascr #18 and ascr #9, respectively, as measured by LC-MS. Four-week old Arabidopsis leaves were infiltrated with 1 μM ascr #18, and leaf tissue were harvested for LC-MS analyses over a period of 96 hours post infiltration of ascr #18. Data are averages±SEM (n=3). FIG. 2D provides LC-MS analyses of tomato leaves infiltrated with 1 μM ascr #18. Tissues were collected over a 12 hour period. Abundances of ascr #18 and ascr #9 are shown as the peak area, as measured by LC-MS. […] To test whether microbes are required for the observed metabolic transformations, leaves of 4-week old Arabidopsis plants were directly infiltrated with ascr #18 and leaf tissue was subsequently harvested for analysis by LC-MS as above. […] About 50% of ascr #18 was metabolized during the first 12 hours, during which time concomitant accumulation of ascr #9 was observed. Formation of ascr #9 was also observed in leaves of 4-week old tomato plants infiltrated with ascr #18 (FIG. 2D).

In data set [1] the test system is Arabidopsis wildtype and ibr10, ech2, ech2ibr10, or acx1acx5 mutants. It is filed as in vivo, Arabidopsis thaliana. The note with it: for ascaroside levels in ascr #18-treated acx1acx5 mutant compared with wildtype: roots treated with 1 μM ascr #18. The method, then: FIG. 3A provides a comparison of peroxisomal β-oxidation (pβo) pathways and associated enzymes involved in the conversion of indole-3-butyric acid (IBA)-to-indole acetic acid (IAA) in Arabidopsis and ascaroside biosynthesis in C. elegans. FIG. 3B provides LC-MS analysis of Arabidopsis seedlings treated with 1 μM ascr #18 for 24 hours before sample extraction, comparing ascr #9 production in wildtype and ibr10, ech2, ech2ibr10, or acx1acx5 mutants. FIG. 3C provides a comparison of ascaroside abundances in Arabidopsis wildtype and acx1acx5 roots treated with 1 μM ascr #18. Data are averages±SEM (n=5); n.d.=not detected. FIG. 3D provides RNAseq analysis of ten day-old Arabidopsis wildtype and acx1acx5 mutant roots, plotted as transcript abundance. Data are averages±s.d (n=6).
Arabidopsis thaliana mutant genotypes in the Col-0 background, ibr10-1, ech2-1, ibr10-1ech2-1, and acx1-2acx5-1, were obtained from Rice University (Houston, TX) (Strader, et al. (2011) Plant Cell 23:984-999; Adham, et al. (2005) Plant J. 41:859-874).
To test whether ascr #18 is metabolized via pβo in plants, Arabidopsis mutants impaired in key enzymes of this pathway were analyzed (FIG. 3B). […] In contrast, two other putative po genes, ibr10 and ech2, a putative enoyl-CoA hydratases (Strader, et al. (2011) Plant Cell 23:984-999; Adham, et al. (2005) Plant J. 41:859-874; Zolman, et al. (2008) Genetics 180(1): 237-51), are not required for ascr #18 metabolism in Arabidopsis. ACXs participate in the […] step of pβo by introducing α,β-unsaturation in the side-chain (Von Reuss, et al. (2012) J. Am. Chem. Soc. 134:1817-1824; Strader, et al. (2011) Plant Cell 23:984-999). […] These observations indicate that ascr #18 metabolism in plants into shorter-chained ascarosides proceeds via pβo, and that ACX1 and/or ACX5 are strictly required for chain shortening of ascr #10, whereas the first chain-shortening step from ascr #18 to ascr #10 may involve additional acyl-CoA oxidases.

In the case of `CC1O[C@@H](O[C@@H](C)CCCCCCCCC(=O)O)C(O)C[C@H]1O` (stereo in doubt) [ascr #18, (10R)-(3′R,5′R-dihydroxy-6′S-methyl-(2H)-tetrahydropyran-2-yloxy)-undecanoic acid], in the data set with Arabidopsis leaves (first 12 hours), the “ascr #18 metabolized” value is “About 50%”. For the same molecule, the “metabolism of ascr #18 into shorter-chained ascarosides” value in data set [1] (acx1acx5 mutant, 1 μM ascr #18, 24 hours) is reported as “dramatically reduced”. In addition, the “requirement of ibr10 and ech2 for ascr #18 metabolism” value in data set [1] (ibr10, ech2 mutants, 1 μM ascr #18, 24 hours) was “not required”. Also, the “ascaroside levels in ascr #18-treated acx1acx5 mutant compared with wildtype” value in data set [1] is recorded as “elevated levels”.
Turning to `C[C@H](CCC(=O)O)O[C@@H]1O[C@@H](C)[C@H](O)C[C@H]1O` [ascr #9], the “time of peak ascr #9 concentration post-infiltration” value in the data set on Arabidopsis leaves is not above 12 h. The “ascr #9 concentration at 96 hours” value in the data set with Arabidopsis leaves (96 hours) is “very low levels”. Besides, in data set [1], the “ascaroside levels in ascr #18-treated acx1acx5 mutant compared with wildtype” value is recorded as “not detected”.

The values above are taken from US20260000079A1, “COMPOSITIONS AND METHODS FOR MODULATING IMMUNITY IN PLANTS” (BOYCE THOMPSON INSTITUTE FOR PLANT RESEARCH, INC., priority 2019, published 2026).
